Results from ChEMBL document CHEMBL4145615, “Indolyl Azaspiroketal Mannich Bases Are Potent Antimycobacterial Agents with Selective Membrane Permeabilizing Effects and in Vivo Activity” (J Med Chem, 2018).
≈ marks a conversion by molar mass, not a printed value.

system: Mycobacterium tuberculosis variant bovis BCG; test: Antimycobacterial activity against Mycobacterium bovis BCG ATCC 35734 after 5 days by broth dilution method; type: functional; settings: ATCC 35734, 120 h

Row | SMILES | MIC50 [µM] | MIC90 [µM]
1 | COc1ccc2c(CN3CCCCC3)cn(CCCOc3ccccc3)c2c1 | 30 (≈ 11.4 µg/mL) | 50 (≈ 18.9 µg/mL)
2 | CCCCCCCCn1cc(CN2CCC3(CC2)OCCCO3)c2cccc([N+](=O)[O-])c21 | 1.3 (≈ 0.577 µg/mL) | 3.1 (≈ 1.38 µg/mL)
3 | CCCCCCCCn1cc(CN2CC(c3ccccc3)C2)c2ccc(OC)cc21 | 2 (≈ 0.809 µg/mL) | 4 (≈ 1.62 µg/mL)
4 | COc1ccc2c(CN3CCC4(CC3)OCCO4)cn(CCCOc3ccc(F)cc3)c2c1 | 5 (≈ 2.27 µg/mL) | 11 (≈ 5 µg/mL)
5 | CCCCCCCCn1ccc2cc(OCCN3CCCCCC3)ccc21 | 2 (≈ 0.741 µg/mL) | 6 (≈ 2.22 µg/mL)
6 | CCCCCCCCn1ccc2cccc(OCCCN3CCCC3)c21 | 10 (≈ 3.57 µg/mL) | 22 (≈ 7.84 µg/mL)
7 | COc1ccc(OCCCn2cc(CN3CCC4(CC3)OCCCO4)c3ccc(OC)cc32)cc1 | 1.5 (≈ 0.721 µg/mL) | 3.5 (≈ 1.68 µg/mL)
8 | CCCCCCCCn1ccc2c(OCCCN3CCCC3)cccc21 | 18 (≈ 6.42 µg/mL) | 36 (≈ 12.8 µg/mL)
9 | CCCCCCCCn1cc(CNCC2CCC3CC3C2)c2ccc(OC)cc21 (stereo not given) | 1.6 (≈ 0.635 µg/mL) | 2.3 (≈ 0.912 µg/mL)
10 | COc1ccc2c(CN3CCC4(CC3)OCCCO4)cn(CCCOc3ccc(C)cc3)c2c1 | 1.3 (≈ 0.604 µg/mL) | 2.6 (≈ 1.21 µg/mL)
11 | COc1ccc(CCCn2cc(CN3CCC4(CC3)OCCO4)c3ccc(OC)cc32)cc1 | 7.4 (≈ 3.33 µg/mL) | 17 (≈ 7.66 µg/mL)
12 | CCCCCCCCn1cc(CN2CCCCC2)c2ccc(OC(C)C)cc21 | 4 (≈ 1.54 µg/mL) | 6 (≈ 2.31 µg/mL)
13 | COc1ccc2c(CN3CCCCC3)cn(CCCOc3ccc(F)cc3)c2c1 | 20 (≈ 7.93 µg/mL) | 43 (≈ 17 µg/mL)
14 | CCCCCCCCn1cc(CN2CCC3(CC2)OCCCO3)c2ccc([N+](=O)[O-])cc21 | 0.3 (≈ 0.133 µg/mL) | 0.8 (≈ 0.355 µg/mL)
15 | COc1ccc2c(CN3CCC4(CC3)OCCCO4)cn(CCCCOc3ccccc3)c2c1 | 11 (≈ 5.11 µg/mL) | 25 (≈ 11.6 µg/mL)
16 | CCCCCCCCn1cc(CN2CCC3(CC2)OCCCO3)c2ccc(OCc3ccccc3)cc21 | 2.2 (≈ 1.11 µg/mL) | 3.1 (≈ 1.56 µg/mL)
17 | CCCCCCCCn1ccc2cc(OCCCN3CCCCCC3)ccc21 | 1.9 (≈ 0.731 µg/mL) | 8 (≈ 3.08 µg/mL)
18 | COc1ccc(OCCCn2cc(CN3CCCCC3)c3ccc(OC)cc32)cc1 | 34 (≈ 13.9 µg/mL) | > 50
19 | CCCCCCCCn1cc(CN2CCC3(CC2)CNC(=O)O3)c2ccc(OC)cc21 | 22 (≈ 9.41 µg/mL) | 43 (≈ 18.4 µg/mL)
20 | CCCCCCCCn1cc(CN2CCCC3(CC2)OCCS3)c2ccc(OC)cc21 (stereo not given) | 0.7 (≈ 0.311 µg/mL) | 1.2 (≈ 0.534 µg/mL)
21 | CCCCCCCCn1cc(CN2CCCC(=O)CC2)c2ccc(OC)cc21 | 17 (≈ 6.54 µg/mL) | 42 (≈ 16.2 µg/mL)
22 | CCCCCCCCn1cc(CNC2Cc3ccccc3C2)c2ccc(OC)cc21 | 4 (≈ 1.62 µg/mL) | –

Row | SMILES | MIC50 [µM] | MIC90 [µM]
23 | COc1ccc2c(CN3CCC4(CC3)OCCCO4)cn(CCCOc3ccc(F)cc3)c2c1 | 1.5 (≈ 0.703 µg/mL) | 2.6 (≈ 1.22 µg/mL)
24 | COc1ccc2c(CN3CCC4(CC3)OCCO4)cn(CCCc3ccccc3)c2c1 | 6 (≈ 2.52 µg/mL) | 18 (≈ 7.57 µg/mL)
25 | COc1ccc2c(CN3CCCCC3)cn(CCCOc3ccc(C)cc3)c2c1 | 19 (≈ 7.46 µg/mL) | 41 (≈ 16.1 µg/mL)
26 | COc1ccc2c(CN3CCC4(CC3)OCCCO4)cn(CCCOc3ccc(C)c(C)c3)c2c1 | 1.7 (≈ 0.814 µg/mL) | 2.7 (≈ 1.29 µg/mL)
27 | CCCCCCCCn1cc(CN2CCC(=O)CC2)c2ccc(OC)cc21 | 17 (≈ 6.3 µg/mL) | 24 (≈ 8.89 µg/mL)
28 | COc1ccc(OCCCn2cc(CN3CCC4(CC3)OCCO4)c3ccc(OC)cc32)cc1 | 6 (≈ 2.8 µg/mL) | 13 (≈ 6.07 µg/mL)
29 | COc1ccc2c(CN3CCC4(CC3)OCCO4)cn(CCCCc3ccccc3)c2c1 | 4.9 (≈ 2.13 µg/mL) | 11.5 (≈ 5 µg/mL)
30 | COc1ccc2c(CN3CCC4(CC3)OCCO4)cn(C/C=C/c3ccccc3)c2c1 | 15 (≈ 6.28 µg/mL) | 31 (≈ 13 µg/mL)
31 | COc1ccc(CCCn2cc(CN3CCC4(CC3)OCCCO4)c3ccc(OC)cc32)cc1 | 4.1 (≈ 1.9 µg/mL) | 9.3 (≈ 4.32 µg/mL)
32 | CCCCCCCCn1cc(CN2CCC3(CCc4ccccc43)CC2)c2ccc(OC)cc21 | 1 (≈ 0.459 µg/mL) | 2 (≈ 0.917 µg/mL)
33 | CCCCCCCCn1cc(CN2CCC3(CC2)OCCCO3)c2ccc(C#N)cc21 | 0.5 (≈ 0.212 µg/mL) | 1.2 (≈ 0.508 µg/mL)
34 | COc1ccc2c(CN3CCC4(CC3)OCCO4)cn(CCCOCc3ccccc3)c2c1 | 16 (≈ 7.21 µg/mL) | 40 (≈ 18 µg/mL)
35 | CCCCCCCCn1cc(CN2CCC3(CC2)OCCO3)c2ccc(OCc3ccccc3)cc21 | 4 (≈ 1.96 µg/mL) | 5.5 (≈ 2.7 µg/mL)
36 | CCCCCCCCn1cc(CN2CCC3(CC2)OCCO3)c2ccc([N+](=O)[O-])cc21 | 0.8 (≈ 0.344 µg/mL) | 1.6 (≈ 0.687 µg/mL)
37 | CCCCCCCCn1cc(CNC2CCC3(CC2)OCCO3)c2ccc(OC)cc21 | 3.6 (≈ 1.54 µg/mL) | 6.3 (≈ 2.7 µg/mL)
38 | COc1ccc2c(CN3CCCCC3)cn(CCCCOc3ccccc3)c2c1 | 16 (≈ 6.28 µg/mL) | 41 (≈ 16.1 µg/mL)
39 | CCCCCCCCn1cc(CN2CCC3(CCN(Cc4ccccc4)CC3)CC2)c2ccc(OC)cc21 | 2.3 (≈ 1.19 µg/mL) | 4.4 (≈ 2.27 µg/mL)
40 | CCCCCCCCn1cc(CN2CCCC3(CC2)OCCCS3)c2ccc(OC)cc21 (stereo not given) | 0.5 (≈ 0.229 µg/mL) | 1 (≈ 0.459 µg/mL)
41 | CCCCCCCCn1cc(CN2CCC3(C2)CC3(F)F)c2ccc(OC)cc21 (stereo not given) | 13 (≈ 5.26 µg/mL) | 18 (≈ 7.28 µg/mL)
42 | COc1ccc2c(CN3CCC4(CC3)OCCO4)cn(CCCOc3ccc(C)c(C)c3)c2c1 | 4.6 (≈ 2.14 µg/mL) | 11 (≈ 5.11 µg/mL)
43 | CCCCCCCCn1ccc2ccc(OCCCN3CCC4(CC3)OC[C@H](C)O4)cc21 | 11 (≈ 4.87 µg/mL) | 25 (≈ 11.1 µg/mL)
